# “Also recorded” adds a separate entry of the source. Read-outs that look alike come from different tables or passages of the source.
# Columns and labels:
# [1] = molecular target: T1, Cytochrome c Peroxidase Gateless cavity (P190G/W191G/Δ192-3) (Saccharomyces cerevisiae, UniProt P00431, A260G/D219G/DEL257-258/P257G/T120I/W258G); experiment: Binding to the CcP Gateless cavity by titration of the UV-Vis Heme Soret band (or ITC); conditions: for Binding by UV-Vis: neutral docking hits, at up to 1 mM concentration
# T1 construct: made in house
# Method: (§1) Our first interest was to investigate the effect of opening the cavity to bulk solvent. Six known ligands of the buried W191G cavity were tested for binding to the Gateless cavity (P190G/W191G/Δ192-3) by UV-Vis titration or by Isothermal Titration Calorimetry (ITC) ( Figure 2 , Table S1 and Figure S1).
# (§2) The compounds were tested for binding by measuring perturbation of the Heme Soret band at 10°C in 100 mM citrate buffer at pH 4.5 or 500 mM MES buffer pH 6.0 [27], [73]. To avoid competition with small cations like potassium, the pH of both buffer conditions was adjusted with Bis-Tris-Propane. Stock solutions were made up in DMSO and diluted into assay buffer to derive KD values in titration curves. KD values were obtained by fitting the difference absorbance of the Heme Soret band to a one-site binding hyperbola in GraphPad Prism (GraphPad Software, Inc.).
# (§3) Experiments were performed as described. Assays were performed at 10°C in 100 mM citrate buffer at pH 4.5. Ligand stocks were prepared in buffer from overnight dialysis of the protein to prevent buffer mismatch.
# [2] = molecular target: Cytochrome c Peroxidase W191G cavity; conditions: closed W191G cavity, cited from earlier work
# [3] = test system: Cytochrome c Peroxidase Gateless cavity (P190G/W191G/Δ192-3); experiment: Binding to the CcP Gateless cavity by titration of the UV-Vis Heme Soret band (or ITC); conditions: for loss in affinity going from W191G to Gateless: ratio of KD Gateless / W191G; for improvement in affinity in Gateless versus closed W191G: ratio of KD W191G / Gateless
# Method: as §1, §2, §3
# [4] = molecular target: T2, CcP Gateless (Saccharomyces cerevisiae, UniProt P00431, A260G/D219G/DEL257-258/P257G/T120I/W258G); experiment: Low C-value Isothermal Titration Calorimetry against CcP Gateless; assay type: binding; conditions: ITC, 283K; † approximate value from partial ITC curves
# T2 construct: made in house
# Method: as §3
# Table S1. ITC data (ΔG, ΔH and ΔS): binding of compounds 1, 2, 3, 4 and 6 to CcP Gateless at 283K.
# [5] = compounds selected from the SEV docking screen, CcP Gateless cavity, UV-Vis Heme Soret band titration, read-out: KD
# [6] = known ligands of W191G, reference not given, read-out: KD W191G
# [7] = six known W191G ligands, UV-Vis titration or ITC, † = approximate KD by endpoint UV-Vis assay or partial ITC curves, limited by solubility, read-out: KD Gateless
# T2 sequence (P00431 other isoform, or with tags, fused parts or gaps T120I/D219G/DEL257-258/A260G): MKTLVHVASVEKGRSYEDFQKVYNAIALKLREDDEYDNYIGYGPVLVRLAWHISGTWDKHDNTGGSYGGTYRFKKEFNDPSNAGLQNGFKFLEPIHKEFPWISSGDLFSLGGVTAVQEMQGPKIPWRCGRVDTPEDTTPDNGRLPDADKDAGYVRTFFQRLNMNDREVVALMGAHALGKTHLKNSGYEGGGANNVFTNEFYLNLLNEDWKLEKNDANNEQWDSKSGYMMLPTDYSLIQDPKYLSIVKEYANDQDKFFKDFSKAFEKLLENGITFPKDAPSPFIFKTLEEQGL
# T1 sequence (P00431 other isoform, or with tags, fused parts or gaps T120I/D219G/DEL257-258/A260G): as above
structure (smiles),measurement,setting,value
"O=Cc1cnc2cc[nH]c2c1 [Compound 24, 1H-Pyrrolo[3,2-b] pyridine-6-carbaldehyde]",Kd,[1]; [5],> 2000 µM
"Nc1ccnc(N)n1 [Compound 2, 2,4-diaminopyrimidine]",Kd,[2]; [6],50 µM
same,loss in affinity going from W191G to Gateless,[3],8 fold
same,Kd,[1]; [7],389 µM
same,TΔS,[4],-1.14 kcal/mol
same,ΔG,[4],-4.42 kcal/mol
same,ΔH,[4],-5.56 kcal/mol
"Nc1ccc2nccn2c1 [Compound 20, Imidazo[1,2-a]pyridin-6-amine]",Kd,[1]; [5],290 µM
Nc1ncc(C=O)c(N)n1 [Compound 23],KD,"[1]; compounds selected from the SEV docking screen, CcP Gateless cavity, UV-Vis Heme Soret band titration",Non Binder
"Nc1cccc2nccn12 [Compound 14, imidazo[1,2-a]pyridin-5-amine]",Kd,[1]; [5],14 µM
"Nc1c2c(nc3sccc13)CCCC2 [Compound 10, 5,6,7,8-tetrahydrothieno[2,3-b]quinolin-4-amine]",Kd,[1]; [5],64 µM
O=C(/C=C/c1ccc(F)cc1)c1ccco1 [Compound 7],Binding by UV-Vis,[1],none showed measurable affinity; also recorded: No binding
COc1ccc(Nc2cc(C)nc(N)n2)cc1 [Compound 16],Kd,[1]; [5],17 µM
Nc1c([N+](=O)[O-])cnc2ccccc12 [Compound 13],Kd,[1]; [5],8 µM
Cn1ccnc1Sc1ccccc1N [Compound 15],Kd,[1]; [5],203 µM
Nc1c(Br)cnc2ccccc12 [Compound 11],Kd,[1]; [5],19 µM
Cc1cc(N)n(-c2ccccc2[N+](=O)[O-])n1 [Compound 18],Kd,[1]; [5],823 µM
"C[n+]1cccc(N)c1 [Compound 4, 3-amino-1-methylpyridinium]",Kd,[2]; [6],500 µM
same,loss in affinity going from W191G to Gateless,[3],6 fold
same,Kd,[1]; [7],~3000 µM
same,TΔS,[4],~-3.6† kcal/mol
same,ΔG,[4],~-3.6† kcal/mol
same,ΔH,[4],~-7.2† kcal/mol
C[C@@H](O)CNc1ncnc2ccccc12 [Compound 19],Kd,[1]; [5],37 µM
"Oc1cccc(F)c1O [Compound 6, 3-fluorocatechol]",Kd,"[2]; no reference given, read-out: affinity in W191G",7700 µM
same,improvement in affinity in Gateless versus closed W191G,[3],2 fold
same,Kd,"[1]; open Gateless cavity, read-out: affinity in Gateless",3100 µM
same,Kd,[1]; [7],~3100 µM
same,ΔG,[4],~-3.2† kcal/mol
same,ΔH,[4],~-1.0† kcal/mol
O=C(Oc1ccccc1)c1ccc2n[nH]nc2c1 [Compound 8],Binding by UV-Vis,[1],none showed measurable affinity; also recorded: No binding
"OCc1cnc2cc[nH]c2c1 [Compound 17, (1H-Pyrrolo[3,2-b]pyridin-6-yl)methanol]",Kd,[1]; [5],982 µM
"Nc1cccc(N)n1 [Compound 3, 2,6-diaminopyridine]",Kd,[2]; [6],60 µM
same,improvement in affinity in Gateless versus closed W191G,[3],about 1.5 fold
same,Kd,[1]; [7],38 µM
same,TΔS,[4],-3.31 kcal/mol
same,ΔG,[4],-5.73 kcal/mol
same,ΔH,[4],-9.04 kcal/mol
"Cc1cnc(N)s1 [Compound 1, 2-amino-5-methylthiazole]",Kd,[2]; [6],6 µM
same,loss in affinity going from W191G to Gateless,[3],16 fold
same,Kd,[1]; [7],95 µM
same,TΔS,[4],0.21 kcal/mol
same,ΔG,[4],-5.21 kcal/mol
same,ΔH,[4],-5.00 kcal/mol
O=C(Oc1cccc([N+](=O)[O-])c1)c1ccncc1 [Compound 9],Binding by UV-Vis,[1],none showed measurable affinity; also recorded: No binding
"CNc1nc2ccccc2[nH]1 [Compound 22, N-methyl-1H-1,3-benzodiazol-2-amine]",Kd,[1]; [5],288 µM
"Oc1ccccc1 [Compound 5, Phenol]",Kd,[2]; [6],4100 µM
same,change of affinity between the two cavities,[3]; W191G versus Gateless,almost unchanged
Cc1cn2cccc(O)c2n1 [Compound 21],Kd,[1]; [5],16 µM

# Reference: publication PMC3715451, “Roles for Ordered and Bulk Solvent in Ligand Recognition and Docking in Two Related Cavities” (PLoS ONE, 2013)
